According to the supplement of paper PMC10733146:

Legend:
Assay in all cases: viability relative to DMSO control (fraction); higher = less drug effect (more viable cells)
Details in all cases: 48 h
[1] = system: primary T-PLL patient cells (S008)
Method in brief: (§1)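 The cells were primary mononuclear tumour cells, either fresh or cryopreserved, isolated by Ficoll from blood or bone marrow or derived from processed lymph node. Each well of a 384-well plate received 4 × 10^4 cells onto compounds pre-plated at five concentrations, with one well per concentration. The medium was RPMI-1640 with penicillin/streptomycin, L-glutamine and human serum, and plates stood at 37 °C and 5% CO2 for 48 h. Viability is reported as CellTiter-Glo luminescence relative to the median of 16 inner DMSO wells.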

[2] = system: primary AML patient cells (S081)
Method in brief: as §1

[3] = system: primary AML patient cells (S006)
Method in brief: as §1

[4] = system: primary CLL patient cells (S031)
Method in brief: as §1

[5] = system: primary AML patient cells (S011)
Method in brief: as §1

[6] = system: primary CLL patient cells (S043)
Method in brief: as §1

[7] = system: primary MCL patient cells (S041)
Method in brief: as §1

[8] = system: primary BL patient cells (S005)
Method in brief: as §1

[9] = system: primary AML patient cells (S012)
Method in brief: as §1

[10] = system: primary MCL patient cells (S068)
Method in brief: as §1

[11] = system: primary MCL patient cells (S063)
Method in brief: as §1

[12] = system: primary AML patient cells (S037)
Method in brief: as §1

[13] = system: primary AML patient cells (S056)
Method in brief: as §1

[14] = system: primary AML patient cells (S085)
Method in brief: as §1

`COc1cccc2c1C(=O)c1c(O)c3c(c(O)c1C2=O)C[C@@](O)(C(C)=O)C[C@@H]3O[C@H]1C[C@H](N)[C@H](O)[C@H](C)O1` [Daunorubicin] gave a viability ([1]; 0.0016 µM) of 1.08, a viability ([1]; 0.008 µM) of 1.09 and a viability ([1]; 0.04 µM) of 0.947. It also gave a viability ([1]; 0.2 µM) of 0.82, a viability ([1]; 1 µM) of 0.0568 and a viability ([2]; 0.0016 µM) of 1.07. The viability ([2]; 0.008 µM) was 1.16, the viability ([2]; 0.04 µM) was 1.15 and the viability ([2]; 0.2 µM) was 1.2. The viability ([2]; 1 µM) was 0.0266, the viability ([3]; 0.0016 µM) was 1.19 and the viability ([3]; 0.008 µM) was 0.923. The viability ([3]; 0.04 µM) was 0.248, the viability ([3]; 0.2 µM) was 0.075 and the viability ([3]; 1 µM) was 0.0282. It also gave a viability ([4]; 0.0016 µM) of 0.982, a viability ([4]; 0.008 µM) of 0.809 and a viability ([4]; 0.04 µM) of 0.265. The viability ([4]; 0.2 µM) was 0.0431, the viability ([4]; 1 µM) was 0.0162 and the viability ([5]; 0.0016 µM) was 1.02. For the same compound, the viability ([5]; 0.008 µM) was 1.07, the viability ([5]; 0.04 µM) was 0.409 and the viability ([5]; 0.2 µM) was 0.0898. It also gave a viability ([5]; 1 µM) of 0.0206, a viability ([6]; 0.0016 µM) of 1.11 and a viability ([6]; 0.008 µM) of 1.12. For the same compound, the viability ([6]; 0.04 µM) was 0.834, the viability ([6]; 0.2 µM) was 0.33 and the viability ([6]; 1 µM) was 0.0261. The viability ([7]; 0.0016 µM) was 1.16, the viability ([7]; 0.008 µM) was 1.11 and the viability ([7]; 0.04 µM) was 0.931. For the same compound, the viability ([7]; 0.2 µM) was 0.323, the viability ([7]; 1 µM) was 0.0341 and the viability ([8]; 0.0016 µM) was 1.06. It also gave a viability ([8]; 0.008 µM) of 1.09, a viability ([8]; 0.04 µM) of 1.02 and a viability ([8]; 0.2 µM) of 0.929. It also gave a viability ([8]; 1 µM) of 0.716, a viability ([9]; 0.0016 µM) of 1 and a viability ([9]; 0.008 µM) of 1.01. For the same compound, the viability ([9]; 0.04 µM) was 0.968, the viability ([9]; 0.2 µM) was 0.922 and the viability ([9]; 1 µM) was 0.083. It also gave a viability ([10]; 0.0016 µM) of 1.18, a viability ([10]; 0.008 µM) of 0.943 and a viability ([10]; 0.04 µM) of 0.449. The viability ([10]; 0.2 µM) was 0.252, the viability ([10]; 1 µM) was 0.0233 and the viability ([11]; 0.0016 µM) was 1.2. The viability ([11]; 0.008 µM) was 1.14, the viability ([11]; 0.04 µM) was 0.979 and the viability ([11]; 0.2 µM) was 0.528. For the same compound, the viability ([11]; 1 µM) was 0.0178, the viability ([12]; 0.0016 µM) was 1.06 and the viability ([12]; 0.008 µM) was 1.02. The viability ([12]; 0.04 µM) was 0.709, the viability ([12]; 0.2 µM) was 0.565 and the viability ([12]; 1 µM) was 0.368. It also gave a viability ([13]; 0.0016 µM) of 0.96, a viability ([13]; 0.008 µM) of 0.881 and a viability ([13]; 0.04 µM) of 0.258. It also gave a viability ([13]; 0.2 µM) of 0.146, a viability ([13]; 1 µM) of 0.0683 and a viability ([14]; 0.0016 µM) of 1.27. For the same compound, the viability ([14]; 0.008 µM) was 0.865, the viability ([14]; 0.04 µM) was 0.312 and the viability ([14]; 0.2 µM) was 0.164. It also gave a viability ([14]; 1 µM) of 0.0173.
`CC(C)C[C@H](NC(=O)CNC(=O)c1cc(Cl)ccc1Cl)B(O)O` [Ixazomib] was tested, and the viability ([1]; 0.008 µM) was 0.924, the viability ([1]; 0.04 µM) was 1.01 and the viability ([1]; 0.2 µM) was 1.09. It also gave a viability ([1]; 1 µM) of 1.01, a viability ([1]; 5 µM) of 0.961 and a viability ([2]; 0.008 µM) of 0.987. It also gave a viability ([2]; 0.04 µM) of 0.96, a viability ([2]; 0.2 µM) of 0.901 and a viability ([2]; 1 µM) of 0.95. The viability ([2]; 5 µM) was 0.981, the viability ([3]; 0.008 µM) was 0.929 and the viability ([3]; 0.04 µM) was 1. The viability ([3]; 0.2 µM) was 0.924, the viability ([3]; 1 µM) was 1.04 and the viability ([3]; 5 µM) was 1.01. For the same compound, the viability ([4]; 0.008 µM) was 0.876, the viability ([4]; 0.04 µM) was 1.04 and the viability ([4]; 0.2 µM) was 1.01. The viability ([4]; 1 µM) was 1.05, the viability ([4]; 5 µM) was 1.02 and the viability ([5]; 0.008 µM) was 0.957. For the same compound, the viability ([5]; 0.04 µM) was 1.15, the viability ([5]; 0.2 µM) was 0.891 and the viability ([5]; 1 µM) was 1.06. For the same compound, the viability ([5]; 5 µM) was 1.03, the viability ([6]; 0.008 µM) was 0.915 and the viability ([6]; 0.04 µM) was 0.73. For the same compound, the viability ([6]; 0.2 µM) was 0.987, the viability ([6]; 1 µM) was 0.74 and the viability ([6]; 5 µM) was 0.781. It also gave a viability ([7]; 0.008 µM) of 0.87, a viability ([7]; 0.04 µM) of 0.97 and a viability ([7]; 0.2 µM) of 0.934. For the same compound, the viability ([7]; 1 µM) was 1.04, the viability ([7]; 5 µM) was 1.05 and the viability ([8]; 0.008 µM) was 1.61. It also gave a viability ([8]; 0.04 µM) of 0.944, a viability ([8]; 0.2 µM) of 1.56 and a viability ([8]; 1 µM) of 0.939. For the same compound, the viability ([8]; 5 µM) was 0.945, the viability ([9]; 0.008 µM) was 0.975 and the viability ([9]; 0.04 µM) was 0.971. It also gave a viability ([9]; 0.2 µM) of 1.1, a viability ([9]; 1 µM) of 1.01 and a viability ([9]; 5 µM) of 0.978. The viability ([10]; 0.008 µM) was 0.998, the viability ([10]; 0.04 µM) was 0.9 and the viability ([10]; 0.2 µM) was 1.04. For the same compound, the viability ([10]; 1 µM) was 1.04, the viability ([10]; 5 µM) was 1.05 and the viability ([11]; 0.008 µM) was 0.919. For the same compound, the viability ([11]; 0.04 µM) was 1.02, the viability ([11]; 0.2 µM) was 0.921 and the viability ([11]; 1 µM) was 0.993. It also gave a viability ([11]; 5 µM) of 0.953, a viability ([12]; 0.008 µM) of 0.982 and a viability ([12]; 0.04 µM) of 0.955. It also gave a viability ([12]; 0.2 µM) of 0.939, a viability ([12]; 1 µM) of 0.937 and a viability ([12]; 5 µM) of 0.955. The viability ([13]; 0.008 µM) was 0.755, the viability ([13]; 0.04 µM) was 0.894 and the viability ([13]; 0.2 µM) was 1.11. It also gave a viability ([13]; 1 µM) of 0.9, a viability ([13]; 5 µM) of 0.893 and a viability ([14]; 0.008 µM) of 0.842. The viability ([14]; 0.04 µM) was 0.977, the viability ([14]; 0.2 µM) was 0.807 and the viability ([14]; 1 µM) was 0.911. It also gave a viability ([14]; 5 µM) of 1.08.
With `Nc1nc(Cl)nc2c1ncn2[C@@H]1O[C@H](CO)[C@@H](O)[C@@H]1F` [Clofarabine] the viability ([1]; 0.024 µM) was 0.989, the viability ([1]; 0.12 µM) was 0.864 and the viability ([1]; 0.6 µM) was 0.64. It also gave a viability ([1]; 3 µM) of 0.562, a viability ([1]; 15 µM) of 0.551 and a viability ([2]; 0.024 µM) of 1.08. It also gave a viability ([2]; 0.12 µM) of 1.07, a viability ([2]; 0.6 µM) of 0.861 and a viability ([2]; 3 µM) of 0.684. The viability ([2]; 15 µM) was 0.415, the viability ([3]; 0.024 µM) was 0.759 and the viability ([3]; 0.12 µM) was 0.381. For the same compound, the viability ([3]; 0.6 µM) was 0.351, the viability ([3]; 3 µM) was 0.461 and the viability ([3]; 15 µM) was 0.489. The viability ([4]; 0.024 µM) was 0.424, the viability ([4]; 0.12 µM) was 0.0924 and the viability ([4]; 0.6 µM) was 0.0411. It also gave a viability ([4]; 3 µM) of 0.0349, a viability ([4]; 15 µM) of 0.0384 and a viability ([5]; 0.024 µM) of 0.762. For the same compound, the viability ([5]; 0.12 µM) was 0.535, the viability ([5]; 0.6 µM) was 0.299 and the viability ([5]; 3 µM) was 0.17. For the same compound, the viability ([5]; 15 µM) was 0.0898, the viability ([6]; 0.024 µM) was 1 and the viability ([6]; 0.12 µM) was 0.888. For the same compound, the viability ([6]; 0.6 µM) was 0.457, the viability ([6]; 3 µM) was 0.284 and the viability ([6]; 15 µM) was 0.157. For the same compound, the viability ([7]; 0.024 µM) was 0.862, the viability ([7]; 0.12 µM) was 0.254 and the viability ([7]; 0.6 µM) was 0.0698. For the same compound, the viability ([7]; 3 µM) was 0.0397, the viability ([7]; 15 µM) was 0.0361 and the viability ([8]; 0.024 µM) was 0.929. The viability ([8]; 0.12 µM) was 0.925, the viability ([8]; 0.6 µM) was 0.761 and the viability ([8]; 3 µM) was 0.882. It also gave a viability ([8]; 15 µM) of 0.735, a viability ([9]; 0.024 µM) of 0.956 and a viability ([9]; 0.12 µM) of 0.826. The viability ([9]; 0.6 µM) was 0.459, the viability ([9]; 3 µM) was 0.276 and the viability ([9]; 15 µM) was 0.136. For the same compound, the viability ([10]; 0.024 µM) was 0.522, the viability ([10]; 0.12 µM) was 0.301 and the viability ([10]; 0.6 µM) was 0.203. It also gave a viability ([10]; 3 µM) of 0.156, a viability ([10]; 15 µM) of 0.128 and a viability ([11]; 0.024 µM) of 0.912. It also gave a viability ([11]; 0.12 µM) of 0.736, a viability ([11]; 0.6 µM) of 0.245 and a viability ([11]; 3 µM) of 0.0814. The viability ([11]; 15 µM) was 0.0383, the viability ([12]; 0.024 µM) was 1.01 and the viability ([12]; 0.12 µM) was 0.834. The viability ([12]; 0.6 µM) was 0.656, the viability ([12]; 3 µM) was 0.651 and the viability ([12]; 15 µM) was 0.627. For the same compound, the viability ([13]; 0.024 µM) was 1, the viability ([13]; 0.12 µM) was 0.413 and the viability ([13]; 0.6 µM) was 0.288. For the same compound, the viability ([13]; 3 µM) was 0.277, the viability ([13]; 15 µM) was 0.303 and the viability ([14]; 0.024 µM) was 0.897. For the same compound, the viability ([14]; 0.12 µM) was 0.41, the viability ([14]; 0.6 µM) was 0.286 and the viability ([14]; 3 µM) was 0.468. The viability ([14]; 15 µM) was 0.555.
